This assay addresses COX-1 (Homo sapiens, UniProt P23219). Nature of the assay: COX-1 inhibition, resveratrol versus Japanese knotweed. Particulars: pure resveratrol (99%) compared with Japanese knotweed. Format: biochemical.

Structures are written as SMILES.

Sequence of COX-1 (P23219 24-599): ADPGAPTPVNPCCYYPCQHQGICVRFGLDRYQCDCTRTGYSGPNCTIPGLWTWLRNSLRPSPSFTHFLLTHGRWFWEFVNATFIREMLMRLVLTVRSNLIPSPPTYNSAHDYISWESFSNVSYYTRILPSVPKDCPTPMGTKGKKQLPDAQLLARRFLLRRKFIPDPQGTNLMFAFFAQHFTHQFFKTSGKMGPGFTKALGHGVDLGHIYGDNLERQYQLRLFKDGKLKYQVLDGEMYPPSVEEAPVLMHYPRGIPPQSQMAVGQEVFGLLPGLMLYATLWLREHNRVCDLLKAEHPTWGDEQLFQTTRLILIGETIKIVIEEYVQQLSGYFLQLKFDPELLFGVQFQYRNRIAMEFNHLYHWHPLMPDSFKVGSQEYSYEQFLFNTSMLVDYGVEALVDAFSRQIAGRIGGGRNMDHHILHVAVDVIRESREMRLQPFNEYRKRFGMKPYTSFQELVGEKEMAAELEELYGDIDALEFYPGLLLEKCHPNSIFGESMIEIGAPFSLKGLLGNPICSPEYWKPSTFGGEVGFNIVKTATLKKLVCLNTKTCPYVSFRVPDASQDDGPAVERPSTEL

Regarding `Oc1ccc(C=Cc2cc(O)cc(O)c2)cc1` [resveratrol], the “effectiveness for COX-1” value is on record as “just as effective”.

Values taken from patent US6541045B1, “Herbal composition and method for combating inflammation” (Nutraceutical Corporation, priority 2002, dated 2003).
